Test results reported in BindingDB's records for doi:10.1021/cc060110n (University of Mississippi, 2007).

How the values were obtained:
[1] = target: L-lactate dehydrogenase (Plasmodium falciparum, UniProt B9UDZ5); assay: Enzyme Assay
Source text: (§1) Enzyme assay using recombinant pfLDH and mLDH (bovine heart).

[2] = target: L-lactate dehydrogenase B chain (Bos taurus, UniProt Q5E9B1); assay: Enzyme Assay
Source text: as §1

L-lactate dehydrogenase B chain, sequence (Q5E9B1 whole entry): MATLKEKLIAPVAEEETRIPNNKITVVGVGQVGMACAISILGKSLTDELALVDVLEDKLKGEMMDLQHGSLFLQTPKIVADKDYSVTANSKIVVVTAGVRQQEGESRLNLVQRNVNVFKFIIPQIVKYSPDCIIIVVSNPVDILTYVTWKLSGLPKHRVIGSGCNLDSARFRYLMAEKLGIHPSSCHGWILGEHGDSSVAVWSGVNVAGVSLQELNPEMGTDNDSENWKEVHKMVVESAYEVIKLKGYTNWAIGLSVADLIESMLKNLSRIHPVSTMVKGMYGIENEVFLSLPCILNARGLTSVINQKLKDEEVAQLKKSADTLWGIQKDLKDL
L-lactate dehydrogenase, sequence (B9UDZ5 whole entry): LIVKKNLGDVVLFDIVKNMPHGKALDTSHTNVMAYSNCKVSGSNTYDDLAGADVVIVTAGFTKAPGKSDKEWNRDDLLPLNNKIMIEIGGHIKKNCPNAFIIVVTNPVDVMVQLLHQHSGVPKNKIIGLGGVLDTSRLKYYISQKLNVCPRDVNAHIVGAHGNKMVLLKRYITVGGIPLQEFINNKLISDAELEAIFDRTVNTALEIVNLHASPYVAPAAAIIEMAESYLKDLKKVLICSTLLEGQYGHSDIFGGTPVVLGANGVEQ

NC(=O)C(=O)O [carbamoylformic acid]
IC50 [1]: 94.4 µM

CCCCCCCNC(=O)C(=O)O [Oxamic Acid/Ester, 10]
IC50 [1]: 160 µM
IC50 [2]: > 200 µM

CCCCCCCCCCCCCCCCNC(=O)C(=O)O [Oxamic Acid/Ester, 14]
IC50 [1]: > 200 µM
IC50 [2]: 150 µM

C=CCN(C(=O)C(=O)O)C1CCCCC1 [Oxamic Acid/Ester, 29]
IC50 [1]: > 200 µM
IC50 [2]: > 200 µM

Cc1cccc(N(C(=O)C(=O)O)c2ccccc2)c1 [Oxamic Acid/Ester, 7]
IC50 [1]: 97.9 µM
IC50 [2]: 107 µM

O=C(O)C(=O)N1CCC(Cc2ccccc2)CC1 [Oxamic Acid/Ester, 20]
IC50 [1]: 101 µM
IC50 [2]: 59 µM

O=C(O)C(=O)N1CCN(Cc2ccccc2)CC1 [Oxamic Acid/Ester, 19]
IC50 [1]: 169 µM
IC50 [2]: 46 µM

CCc1ccccc1N(Cc1ccccc1)C(=O)C(=O)O [Oxamic Acid/Ester, 8]
IC50 [1]: > 200 µM
IC50 [2]: 158 µM

CC(C)c1ccc2c(c1)CCC1[C@](C)(CNC(=O)C(=O)O)CCC[C@]21C (stereo partly drawn) [Oxamic Acid/Ester, 18]
IC50 [1]: 59 µM
IC50 [2]: 20 µM

COCCNC(=O)C(=O)O [Oxamic Acid/Ester, 21]
IC50 [1]: 14 µM
IC50 [2]: 25 µM

CC(NC(=O)C(=O)O)c1cccc2c1CCCC2 (stereo not drawn) [Oxamic Acid/Ester, 38]
IC50 [1]: 146 µM
IC50 [2]: > 200 µM

CSc1cccc(NC(=O)C(=O)O)c1 [Oxamic Acid/Ester, 37]
IC50 [1]: > 200 µM
IC50 [2]: > 200 µM

CN(C(=O)C(=O)O)c1ccccc1 [Oxamic Acid/Ester, 24]
IC50 [1]: > 200 µM
IC50 [2]: > 200 µM

CCCCCCCCCNC(=O)C(=O)O [Oxamic Acid/Ester, 26]
IC50 [1]: 88 µM
IC50 [2]: > 200 µM

O=C(O)C(=O)NCc1cccc2ccccc12 [Oxamic Acid/Ester, 17]
IC50 [1]: 43 µM
IC50 [2]: > 200 µM

COCCCNC(=O)C(=O)O [Oxamic Acid/Ester, 25]
IC50 [1]: 43 µM
IC50 [2]: 31 µM

O=C(O)C(=O)NCC1CCCO1 (stereo not drawn) [Oxamic Acid/Ester, 35]
IC50 [1]: 188 µM
IC50 [2]: > 200 µM

O=C(O)C(=O)NCCCCc1ccccc1 [Oxamic Acid/Ester, 41]
IC50 [1]: 41 µM
IC50 [2]: 88 µM

CN(Cc1ccco1)C(=O)C(=O)O [Oxamic Acid/Ester, 16]
IC50 [1]: > 200 µM
IC50 [2]: 186 µM

CCC(C)NC(=O)C(=O)O (stereo not drawn) [Oxamic Acid/Ester, 31]
IC50 [1]: > 200 µM
IC50 [2]: > 200 µM

CCCCCCNC(=O)C(=O)O [Oxamic Acid/Ester, 23]
IC50 [1]: 47 µM
IC50 [2]: 133 µM

O=C(O)C(=O)N(Cc1ccccc1)Cc1ccccc1 [Oxamic Acid/Ester, 32]
IC50 [1]: > 200 µM
IC50 [2]: > 200 µM

O=C(O)C(=O)N(Cc1ccccc1)c1ccccc1 [Oxamic Acid/Ester, 22]
IC50 [1]: > 200 µM
IC50 [2]: > 200 µM

O=C(O)C(=O)NCCC(c1ccccc1)c1ccccc1 [Oxamic Acid/Ester, 36]
IC50 [1]: 35 µM
IC50 [2]: 90 µM

CN(Cc1ccccc1)C(=O)C(=O)O [Oxamic Acid/Ester, 30]
IC50 [1]: > 200 µM
IC50 [2]: 168 µM

CCCCCN(C)C(=O)C(=O)O [Oxamic Acid/Ester, 28]
IC50 [1]: > 200 µM
IC50 [2]: > 200 µM

O=C(O)C(=O)NCc1ccco1 [Oxamic Acid/Ester, 39]
IC50 [1]: > 200 µM
IC50 [2]: > 200 µM

CC(C)CNC(=O)C(=O)O [Oxamic Acid/Ester, 40]
IC50 [1]: > 200 µM
IC50 [2]: > 200 µM

CC1CCCCN1C(=O)C(=O)O (stereo not drawn) [Oxamic Acid/Ester, 33]
IC50 [1]: > 200 µM
IC50 [2]: 43 µM

Cc1ccc(CNC(=O)C(=O)O)o1 [Oxamic Acid/Ester, 15]
IC50 [1]: > 200 µM
IC50 [2]: > 200 µM

COc1ccccc1NC(=O)C(=O)O [Oxamic Acid/Ester, 6]
IC50 [1]: > 200 µM
IC50 [2]: > 200 µM

O=C(O)C(=O)N1CCN(c2ccccc2)CC1 [Oxamic Acid/Ester, 27]
IC50 [1]: > 200 µM
IC50 [2]: 32 µM

Cc1cc2c(C(C)C)c(O)c(O)c(C=O)c2c(O)c1-c1c(C)cc2c(C(C)C)c(O)c(O)c(C=O)c2c1O [Tash 1]
IC50 [1]: 3.97 µM
IC50 [2]: 6.9 µM

O=C(O)C(=O)NCCc1ccc(Br)cc1 [Oxamic Acid/Ester, 42]
IC50 [1]: 51 µM
IC50 [2]: > 200 µM

CCCCNC(=O)C(=O)O [Oxamic Acid/Ester, 12]
IC50 [1]: > 200 µM
IC50 [2]: > 200 µM

CC(C)CCNC(=O)C(=O)O [Oxamic Acid/Ester, 34]
IC50 [1]: 157 µM
IC50 [2]: > 200 µM

C=CCN(C)C(=O)C(=O)O [Oxamic Acid/Ester, 11]
IC50 [1]: > 200 µM
IC50 [2]: > 200 µM
